# Results: ChEMBL document CHEMBL1629583, “Establishment of in vitro susceptibility testing methodologies and comparative activities of piperacillin in combination with the penem {beta}-lactamase inhibitor BLI-489” (2009)
# Tests used:
# Format in all cases: functional
# Citrobacter freundii = assay: Antimicrobial activity against AmpC beta-lactamase-producing Citrobacter freundii clinical isolate after 18 to 22 hrs by broth microdilution method
# Proteus mirabilis = assay: Antimicrobial activity against Proteus mirabilis clinical isolate after 18 to 22 hrs by broth microdilution method
# Acinetobacter junii = assay: Antimicrobial activity against Acinetobacter junii clinical isolate after 18 to 22 hrs by broth microdilution method
# Enterococcus hirae = assay: Antimicrobial activity against Enterococcus hirae clinical isolate after 18 to 22 hrs by broth microdilution method
# Enterococcus avium = assay: Antimicrobial activity against Enterococcus avium clinical isolate after 18 to 22 hrs by broth microdilution method
# Acinetobacter lwoffii = assay: Antimicrobial activity against Acinetobacter lwoffii clinical isolate after 18 to 22 hrs by broth microdilution method
# Haemophilus influenzae = assay: Antimicrobial activity against beta-lactamase-producing Haemophilus influenzae clinical isolate after 18 to 22 hrs by broth microdilution method
# Providencia stuartii = assay: Antimicrobial activity against Providencia stuartii clinical isolate after 18 to 22 hrs by broth microdilution method
# [1] = test system: Staphylococcus epidermidis; assay: Antimicrobial activity against methicillin-susceptible Staphylococcus epidermidis clinical isolate after 18 to 22 hrs by broth microdilution method
# [2] = test system: Acinetobacter haemolyticus; assay: Antimicrobial activity against Acinetobacter haemolyticus clinical isolate after 18 to 22 hrs by broth microdilution method
# Klebsiella aerogenes [3] = assay: Antimicrobial activity against AmpC beta-lactamase-producing Enterobacter aerogenes clinical isolate after 18 to 22 hrs by broth microdilution method
# Enterococcus gallinarum = assay: Antimicrobial activity against Enterococcus gallinarum clinical isolate after 18 to 22 hrs by broth microdilution method
# Enterococcus faecalis = assay: Antimicrobial activity against Enterococcus faecalis clinical isolate after 18 to 22 hrs by broth microdilution method
# Klebsiella pneumoniae [4] = assay: Antimicrobial activity against class A extended spectrum beta-lactamase- producing Klebsiella pneumoniae clinical isolate after 18 to 22 hrs by broth microdilution method
# Escherichia coli [5] = assay: Antimicrobial activity against AmpC beta-lactamase-producing Escherichia coli clinical isolate after 18 to 22 hrs by broth microdilution method
# Klebsiella pneumoniae [6] = assay: Antimicrobial activity against class A extended spectrum beta-lactamase- and class D OXA- producing Klebsiella pneumoniae clinical isolate after 18 to 22 hrs by broth microdilution method
# Klebsiella pneumoniae [7] = assay: Antimicrobial activity against Klebsiella pneumoniae clinical isolate after 18 to 22 hrs by broth microdilution method
# [8] = test system: Staphylococcus epidermidis; assay: Antimicrobial activity against methicillin-resistant Staphylococcus epidermidis clinical isolate after 18 to 22 hrs by broth microdilution method
# Enterococcus durans = assay: Antimicrobial activity against Enterococcus durans clinical isolate after 18 to 22 hrs by broth microdilution method
# Streptococcus pneumoniae [9] = assay: Antimicrobial activity against penicillin-intermediate Streptococcus pneumoniae clinical isolate after 18 to 22 hrs by broth microdilution method
# Burkholderia cepacia = assay: Antimicrobial activity against Burkholderia cepacia clinical isolate after 18 to 22 hrs by broth microdilution method
# Moraxella catarrhalis = assay: Antimicrobial activity against Moraxella catarrhalis clinical isolate after 18 to 22 hrs by broth microdilution method
# Klebsiella aerogenes [10] = assay: Antimicrobial activity against Enterobacter aerogenes clinical isolate after 18 to 22 hrs by broth microdilution method
# Streptococcus pneumoniae [11] = assay: Antimicrobial activity against penicillin-resistant Streptococcus pneumoniae clinical isolate after 18 to 22 hrs by broth microdilution method
# Streptococcus pyogenes = assay: Antimicrobial activity against Streptococcus pyogenes clinical isolate after 18 to 22 hrs by broth microdilution method
# [12] = test system: Staphylococcus haemolyticus; assay: Antimicrobial activity against Staphylococcus haemolyticus clinical isolate after 18 to 22 hrs by broth microdilution method
# Staphylococcus aureus = assay: Antimicrobial activity against methicillin-susceptible Staphylococcus aureus clinical isolate after 18 to 22 hrs by broth microdilution method
# Enterobacter cloacae [13] = assay: Antimicrobial activity against Enterobacter cloacae clinical isolate after 18 to 22 hrs by broth microdilution method
# Proteus vulgaris = assay: Antimicrobial activity against Proteus vulgaris clinical isolate after 18 to 22 hrs by broth microdilution method
# Serratia marcescens [14] = assay: Antimicrobial activity against AmpC beta-lactamase-producing Serratia marcescens clinical isolate after 18 to 22 hrs by broth microdilution method
# Serratia marcescens [15] = assay: Antimicrobial activity against Serratia marcescens clinical isolate after 18 to 22 hrs by broth microdilution method
# Pseudomonas aeruginosa = assay: Antimicrobial activity against Pseudomonas aeruginosa clinical isolate after 18 to 22 hrs by broth microdilution method
# Escherichia coli [16] = assay: Antimicrobial activity against class A extended spectrum beta-lactamase- and class D OXA- producing Escherichia coli clinical isolate after 18 to 22 hrs by broth microdilution method
# [17] = test system: Stenotrophomonas maltophilia; assay: Antimicrobial activity against Stenotrophomonas maltophilia clinical isolate after 18 to 22 hrs by broth microdilution method
# Enterococcus faecium = assay: Antimicrobial activity against vancomycin-resistant Enterococcus faecium clinical isolate after 18 to 22 hrs by broth microdilution method
# Morganella morganii = assay: Antimicrobial activity against Morganella morganii clinical isolate after 18 to 22 hrs by broth microdilution method
# Klebsiella oxytoca = assay: Antimicrobial activity against Klebsiella oxytoca clinical isolate after 18 to 22 hrs by broth microdilution method
# [18] = test system: Enterococcus casseliflavus; assay: Antimicrobial activity against Enterococcus casseliflavus clinical isolate after 18 to 22 hrs by broth microdilution method
# Enterobacter cloacae [19] = assay: Antimicrobial activity against AmpC beta-lactamase-producing Enterobacter cloacae clinical isolate after 18 to 22 hrs by broth microdilution method
# Escherichia coli [20] = assay: Antimicrobial activity against class A extended spectrum beta-lactamase- producing Escherichia coli clinical isolate after 18 to 22 hrs by broth microdilution method
structure (smiles),measurement,setting,value
CCN1CCN(C(=O)N[C@@H](C(=O)N[C@@H]2C(=O)N3[C@@H]2SC(C)(C)[C@@H]3C(=O)O)c2ccccc2)C(=O)C1=O [PIPERACILLIN],MIC50,Citrobacter freundii,> 128 µg/mL
same,MIC90,Citrobacter freundii,> 128 µg/mL
same,MIC50,Proteus mirabilis,> 128 µg/mL
same,MIC90,Proteus mirabilis,> 128 µg/mL
same,MIC50,Acinetobacter junii,4 µg/mL
same,MIC90,Acinetobacter junii,128 µg/mL
same,MIC50,Enterococcus hirae,4 µg/mL
same,MIC90,Enterococcus hirae,16 µg/mL
same,MIC50,Enterococcus avium,16 µg/mL
same,MIC90,Enterococcus avium,64 µg/mL
same,MIC50,Acinetobacter lwoffii,4 µg/mL
same,MIC90,Acinetobacter lwoffii,128 µg/mL
same,MIC50,Haemophilus influenzae,8 µg/mL
same,MIC90,Haemophilus influenzae,32 µg/mL
same,MIC50,Providencia stuartii,2 µg/mL
same,MIC50,[1],2 µg/mL
same,MIC90,[1],8 µg/mL
same,MIC50,[2],4 µg/mL
same,MIC90,[2],128 µg/mL
same,MIC50,Klebsiella aerogenes [3],> 128 µg/mL
same,MIC90,Klebsiella aerogenes [3],> 128 µg/mL
same,MIC50,Enterococcus gallinarum,4 µg/mL
same,MIC90,Enterococcus gallinarum,16 µg/mL
same,MIC,Enterococcus faecalis,2 µg/mL
same,MIC50,Enterococcus faecalis,2 µg/mL
same,MIC90,Enterococcus faecalis,4 µg/mL
same,MIC,Klebsiella pneumoniae [4],> 128 µg/mL
same,MIC50,Klebsiella pneumoniae [4],> 128 µg/mL
same,MIC90,Klebsiella pneumoniae [4],> 128 µg/mL
same,MIC50,Escherichia coli [5],> 128 µg/mL
same,MIC90,Escherichia coli [5],> 128 µg/mL
same,MIC50,Klebsiella pneumoniae [6],> 128 µg/mL
same,MIC90,Klebsiella pneumoniae [6],> 128 µg/mL
same,MIC50,Klebsiella pneumoniae [7],8 µg/mL
same,MIC90,Klebsiella pneumoniae [7],128 µg/mL
same,MIC50,[8],8 µg/mL
same,MIC90,[8],64 µg/mL
same,MIC50,Enterococcus durans,4 µg/mL
same,MIC90,Enterococcus durans,16 µg/mL
same,MIC50,Streptococcus pneumoniae [9],0.25 µg/mL
same,MIC90,Streptococcus pneumoniae [9],1 µg/mL
same,MIC50,Burkholderia cepacia,32 µg/mL
same,MIC90,Burkholderia cepacia,128 µg/mL
same,MIC50,Moraxella catarrhalis,0.25 µg/mL
same,MIC90,Moraxella catarrhalis,8 µg/mL
same,MIC50,Klebsiella aerogenes [10],4 µg/mL
same,MIC90,Klebsiella aerogenes [10],128 µg/mL
same,MIC50,Streptococcus pneumoniae [11],2 µg/mL
same,MIC90,Streptococcus pneumoniae [11],4 µg/mL
same,MIC50,Streptococcus pyogenes,0.03 µg/mL
same,MIC90,Streptococcus pyogenes,0.06 µg/mL
same,MIC50,[12],> 128 µg/mL
same,MIC90,[12],> 128 µg/mL
same,MIC50,Staphylococcus aureus,64 µg/mL
same,MIC90,Staphylococcus aureus,> 128 µg/mL
same,MIC50,Enterobacter cloacae [13],4 µg/mL
same,MIC90,Enterobacter cloacae [13],> 128 µg/mL
same,MIC50,Proteus vulgaris,64 µg/mL
same,MIC90,Proteus vulgaris,> 128 µg/mL
same,MIC50,Serratia marcescens [14],> 128 µg/mL
same,MIC90,Serratia marcescens [14],> 128 µg/mL
same,MIC50,Serratia marcescens [15],4 µg/mL
same,MIC90,Serratia marcescens [15],> 128 µg/mL
same,MIC50,Pseudomonas aeruginosa,16 µg/mL
same,MIC90,Pseudomonas aeruginosa,> 128 µg/mL
same,MIC,Escherichia coli [16],> 128 µg/mL
same,MIC50,Escherichia coli [16],> 128 µg/mL
same,MIC90,Escherichia coli [16],> 128 µg/mL
same,MIC,[17],> 128 µg/mL
same,MIC50,[17],> 128 µg/mL
same,MIC90,[17],> 128 µg/mL
same,MIC,Enterococcus faecium,> 128 µg/mL
same,MIC50,Enterococcus faecium,> 128 µg/mL
same,MIC50,Morganella morganii,8 µg/mL
same,MIC90,Morganella morganii,> 128 µg/mL
same,MIC50,Klebsiella oxytoca,8 µg/mL
same,MIC90,Klebsiella oxytoca,64 µg/mL
same,MIC50,[18],4 µg/mL
same,MIC90,[18],16 µg/mL
same,MIC50,Enterobacter cloacae [19],> 128 µg/mL
same,MIC90,Enterobacter cloacae [19],> 128 µg/mL
same,MIC,Escherichia coli [20],> 128 µg/mL
same,MIC50,Escherichia coli [20],> 128 µg/mL
same,MIC90,Escherichia coli [20],> 128 µg/mL
